According to US9809623B2, “α4β7 peptide monomer and dimer antagonists” (Protagonist Therapeutics, Inc., priority 2014, dated 2017):
Numbered stars: 1 amine (or outer) side, 2 acyl side, 3 side chain; on linkers, the order of the positions; unused ones are H or OH. Bridge positions count the residues as written; N and C are the ends. Square brackets hold non-standard residues; d marks the D form. Peptide text beside a SMILES is read from it. I, II: the chains in the order shown. Phe(3,4-Cl2) = N[C@@H](Cc1ccc(Cl)c(Cl)c1)C(=O)O; Phe(2,4-Cl2) = N[C@@H](Cc1ccc(Cl)cc1Cl)C(=O)O; 1Nal = N[C@@H](Cc1cccc2ccccc12)C(=O)O; 2Nal = N[C@@H](Cc1ccc2ccccc2c1)C(=O)O; Diglycolyl = O=C(COCC(=O)[*:2])[*:1]; NMeR = CN[C@@H](CCCNC(=N)N)C(=O)O; Pen = CC(C)(S)[C@H](N)C(=O)O; dNMeK = CN[C@H](CCCCN)C(=O)O

Key:
rh integrin α4β7 = target: T1, rh integrin α4β7 (Homo sapiens, UniProt P13612+P26010); assay: α4β7-MAdCAM Competition ELISA; type: binding; details: Table 3-B, Potency (α4β7); range classes; read-out: α4β7 ELISA IC50
T1 construct: purchased R&D Systems 5397-A30
Method in brief: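 Competition read-out was A450 after anti-human IgG1-HRP and TMB detection of bound recombinant human MAdCAM-1 (10 nM final). Peptides were serially diluted 3-fold from a final 10 μM and equilibrated 1 h at room temperature on nickel-captured α4β7 (800 ng/well). The buffer was Tris pH 7.6 with 1 mM Mn2+ or Mg2+.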

α4β1 = target: T2, α4β1 (Homo sapiens, UniProt P05556+P13612, DEL729-798); assay: α4β1-VCAM Competition ELISA; type: binding; details: Table 3-B, Selectivity (α4β1); range classes; read-out: α4β1 ELISA IC50
T2 construct: purchased R&D Systems 5668-A4
Procedure: A Nunc MaxiSorp plate was coated with rh VCAM-1/CD106 Fc chimera (R&D #862-VC) at 400 ng/well in 50 ul per well in 1×PBS and incubated overnight at 4° C. The solution was removed by shaking and then blocked with 250 ul of 1% BSA in 1×PBS per well. The wells were then incubated at room temperature for 1 hr with shaking. Each well was then washed once with wash buffer (50 mM Tris-HCl pH7.6, 100 mM NaCL, 1 mM MnCl2 or MgCl2, 0.05% Tween-20). 25 ul of serial dilutions of peptides starting at 200 μM in assay buffer (Assay buffer: 50 mM Tris-HCl pH7.6, 100 mM NaCl, 1 mM MnCl2 or MgCl2, 0.05% Tween-20) was added to each well. Additionally, 25 ul of α4β1 (R&D Systems #5668-A4) was added to each well at a fixed concentration of 120 nM. The final peptide and α4β1 concentrations were 100 μM and 60 nM, respectively. The plates were then incubated at 37° C. for 2 hr. The solution was then removed by shaking, and each well was washed three times with wash buffer. 50 ul of 9F10 antibody at 4 ug/ml (purified mouse anti-human CD49d, BD Bioscience Cat#555502) was then added to each well, and the plate was incubated at room temperature for 1 hr with shaking. The solution was again removed by shaking, and each well was washed three times with wash buffer. 50 ul of peroxidase-conjugated AffiniPure Goat anti-mouse IgG (Jackson immune research cat #115-035-003) diluted in 1:5000 in assay buffer was added to each well. The plate was incubated at room temperature for 30 min with shaking. Each well was then washed 3 times with wash buffer. 100 ul of TMB was then added to each well and closely observe during developing time. The reaction was stepped with 2N H2SO4 and absorbance was read at 450 nm.

[1] = Simulated Intestinal Fluid (SIF) Stability Assay; type: in vitro ADME, porcine; details: > means experiment was stopped at that time and half life was not reached; for half-life at 22 μM: pig, simulated intestinal fluid (SIF) with 1% porcine pancreatin, pH 6.5, Table 3-B, read-out: Stabilty SIF t1/2
Method in brief: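 Intestinal stability: percent peptide remaining over time, by LC-MS/MS peak-area ratio to internal standard, fitted to first-order decay for half-life. Conditions: 22 μM peptide, 1% pancreatin in pH 6.5 blank FASSIF, 37 °C.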

α4β7 = α4β7 (Homo sapiens, UniProt P13612+P26010); assay: α4β7-MAdCAM Cell Adhesion Assay (RPMI 8866 human cells); type: cell-based; parameters: host or cells: RPMI 8866 human B lymphoblastoid cells; details: Table 3-B, Potency (α4β7); range classes; read-out: α4β7 cell (Hu) IC50
Method in brief: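 Adhesion read-out: MTT absorbance at 570 nm minus no-cell wells, after three washes. Plates coated with rh MAdCAM-1/Fc received peptide dilutions plus 200,000 RPMI 8866 cells in Mn2+ (1 mM)-supplemented DMEM, 0.1% BSA, HEPES pH 7, incubated 30-45 min, 37 °C.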

T1 sequence (P13612 34-977 limits assumed): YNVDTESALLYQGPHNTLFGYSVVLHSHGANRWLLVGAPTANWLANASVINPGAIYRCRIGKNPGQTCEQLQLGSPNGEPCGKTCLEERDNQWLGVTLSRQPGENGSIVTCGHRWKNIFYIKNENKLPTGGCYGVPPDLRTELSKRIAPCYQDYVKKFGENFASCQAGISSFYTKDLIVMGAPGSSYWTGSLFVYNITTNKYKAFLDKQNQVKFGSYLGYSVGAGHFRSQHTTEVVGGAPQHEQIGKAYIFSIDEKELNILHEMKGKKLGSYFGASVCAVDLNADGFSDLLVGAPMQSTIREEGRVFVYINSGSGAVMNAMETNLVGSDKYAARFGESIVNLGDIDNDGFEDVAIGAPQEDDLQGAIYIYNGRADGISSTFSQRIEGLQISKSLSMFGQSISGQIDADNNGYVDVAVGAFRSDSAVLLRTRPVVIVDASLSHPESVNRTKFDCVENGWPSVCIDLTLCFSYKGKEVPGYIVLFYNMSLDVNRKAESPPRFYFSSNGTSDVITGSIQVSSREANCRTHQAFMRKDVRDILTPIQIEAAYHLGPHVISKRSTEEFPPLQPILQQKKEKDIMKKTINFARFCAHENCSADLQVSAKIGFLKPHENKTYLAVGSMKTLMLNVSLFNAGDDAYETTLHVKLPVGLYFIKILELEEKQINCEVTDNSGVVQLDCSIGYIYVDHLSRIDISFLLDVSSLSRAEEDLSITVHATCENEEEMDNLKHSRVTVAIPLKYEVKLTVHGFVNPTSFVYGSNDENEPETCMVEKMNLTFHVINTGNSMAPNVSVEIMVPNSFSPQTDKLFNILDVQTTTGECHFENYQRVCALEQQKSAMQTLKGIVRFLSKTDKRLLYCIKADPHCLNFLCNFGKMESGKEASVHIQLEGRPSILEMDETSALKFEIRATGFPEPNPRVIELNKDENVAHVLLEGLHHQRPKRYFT
T1 sequence (P26010 20-723 limits assumed): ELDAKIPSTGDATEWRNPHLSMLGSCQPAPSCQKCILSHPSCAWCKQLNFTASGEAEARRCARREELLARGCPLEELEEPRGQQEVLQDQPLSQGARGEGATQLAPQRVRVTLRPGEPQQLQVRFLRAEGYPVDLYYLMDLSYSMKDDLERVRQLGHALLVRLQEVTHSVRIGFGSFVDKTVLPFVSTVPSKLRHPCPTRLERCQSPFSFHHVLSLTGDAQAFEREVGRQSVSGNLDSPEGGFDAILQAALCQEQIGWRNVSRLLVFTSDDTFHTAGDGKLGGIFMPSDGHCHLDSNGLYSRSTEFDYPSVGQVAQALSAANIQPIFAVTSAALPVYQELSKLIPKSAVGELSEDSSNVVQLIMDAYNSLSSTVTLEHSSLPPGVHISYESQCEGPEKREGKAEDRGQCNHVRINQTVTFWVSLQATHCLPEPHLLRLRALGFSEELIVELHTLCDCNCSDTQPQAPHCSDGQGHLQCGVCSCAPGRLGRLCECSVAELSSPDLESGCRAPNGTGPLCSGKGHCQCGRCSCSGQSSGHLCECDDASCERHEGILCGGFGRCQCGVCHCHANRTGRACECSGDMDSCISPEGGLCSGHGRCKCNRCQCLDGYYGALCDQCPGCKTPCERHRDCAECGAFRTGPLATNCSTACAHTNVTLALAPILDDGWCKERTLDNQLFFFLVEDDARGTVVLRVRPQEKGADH
T2 sequence (P13612 34-977 limits assumed, stated change not applied): as the sequence (P13612 34-977 limits assumed) above
T2 sequence (P05556 21-728 limits assumed, stated change not applied): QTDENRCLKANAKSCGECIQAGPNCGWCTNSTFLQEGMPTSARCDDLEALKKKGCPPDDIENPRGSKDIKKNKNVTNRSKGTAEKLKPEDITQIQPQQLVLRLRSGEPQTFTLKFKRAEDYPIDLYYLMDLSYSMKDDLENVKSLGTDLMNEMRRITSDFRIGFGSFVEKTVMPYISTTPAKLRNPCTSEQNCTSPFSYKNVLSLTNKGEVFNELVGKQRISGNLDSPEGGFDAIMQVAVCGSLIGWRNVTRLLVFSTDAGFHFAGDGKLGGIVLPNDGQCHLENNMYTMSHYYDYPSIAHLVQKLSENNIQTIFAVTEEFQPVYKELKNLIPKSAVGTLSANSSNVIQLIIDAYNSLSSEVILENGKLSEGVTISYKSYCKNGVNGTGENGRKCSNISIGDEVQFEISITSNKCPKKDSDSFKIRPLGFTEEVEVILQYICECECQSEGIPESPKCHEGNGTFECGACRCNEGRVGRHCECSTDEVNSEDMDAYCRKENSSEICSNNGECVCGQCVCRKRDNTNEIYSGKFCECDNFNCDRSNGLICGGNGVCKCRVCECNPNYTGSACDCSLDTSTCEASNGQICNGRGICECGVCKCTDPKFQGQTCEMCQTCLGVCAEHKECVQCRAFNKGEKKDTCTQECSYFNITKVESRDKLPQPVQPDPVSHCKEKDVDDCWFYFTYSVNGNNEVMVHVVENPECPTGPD
Chain of α4β7 (P13612 34-1032): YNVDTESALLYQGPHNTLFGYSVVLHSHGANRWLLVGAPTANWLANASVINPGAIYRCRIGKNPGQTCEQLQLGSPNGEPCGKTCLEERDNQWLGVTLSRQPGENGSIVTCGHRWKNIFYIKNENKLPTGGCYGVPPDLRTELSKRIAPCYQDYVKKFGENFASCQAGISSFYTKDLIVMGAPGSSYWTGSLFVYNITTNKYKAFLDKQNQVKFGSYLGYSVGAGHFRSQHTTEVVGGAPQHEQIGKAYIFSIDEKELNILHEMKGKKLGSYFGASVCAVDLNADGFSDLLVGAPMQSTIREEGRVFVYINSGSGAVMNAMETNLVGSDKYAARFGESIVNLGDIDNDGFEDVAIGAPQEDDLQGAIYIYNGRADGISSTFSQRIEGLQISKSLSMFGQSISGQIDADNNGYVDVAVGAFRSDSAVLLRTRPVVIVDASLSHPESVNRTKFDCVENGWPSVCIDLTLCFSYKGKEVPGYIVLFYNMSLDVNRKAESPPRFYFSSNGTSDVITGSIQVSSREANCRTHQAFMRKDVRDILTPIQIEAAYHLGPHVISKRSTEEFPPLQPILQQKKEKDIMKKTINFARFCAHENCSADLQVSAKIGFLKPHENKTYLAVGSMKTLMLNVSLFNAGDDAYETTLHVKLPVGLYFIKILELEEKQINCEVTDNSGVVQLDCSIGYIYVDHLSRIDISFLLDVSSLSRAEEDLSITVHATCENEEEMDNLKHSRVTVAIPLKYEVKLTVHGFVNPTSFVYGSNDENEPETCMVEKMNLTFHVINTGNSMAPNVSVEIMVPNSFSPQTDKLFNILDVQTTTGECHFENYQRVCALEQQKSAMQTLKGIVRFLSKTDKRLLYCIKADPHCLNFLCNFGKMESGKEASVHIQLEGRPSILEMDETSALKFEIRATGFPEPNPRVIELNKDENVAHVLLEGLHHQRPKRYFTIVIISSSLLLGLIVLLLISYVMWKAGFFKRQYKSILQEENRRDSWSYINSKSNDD
Chain of α4β7 (P26010 20-798): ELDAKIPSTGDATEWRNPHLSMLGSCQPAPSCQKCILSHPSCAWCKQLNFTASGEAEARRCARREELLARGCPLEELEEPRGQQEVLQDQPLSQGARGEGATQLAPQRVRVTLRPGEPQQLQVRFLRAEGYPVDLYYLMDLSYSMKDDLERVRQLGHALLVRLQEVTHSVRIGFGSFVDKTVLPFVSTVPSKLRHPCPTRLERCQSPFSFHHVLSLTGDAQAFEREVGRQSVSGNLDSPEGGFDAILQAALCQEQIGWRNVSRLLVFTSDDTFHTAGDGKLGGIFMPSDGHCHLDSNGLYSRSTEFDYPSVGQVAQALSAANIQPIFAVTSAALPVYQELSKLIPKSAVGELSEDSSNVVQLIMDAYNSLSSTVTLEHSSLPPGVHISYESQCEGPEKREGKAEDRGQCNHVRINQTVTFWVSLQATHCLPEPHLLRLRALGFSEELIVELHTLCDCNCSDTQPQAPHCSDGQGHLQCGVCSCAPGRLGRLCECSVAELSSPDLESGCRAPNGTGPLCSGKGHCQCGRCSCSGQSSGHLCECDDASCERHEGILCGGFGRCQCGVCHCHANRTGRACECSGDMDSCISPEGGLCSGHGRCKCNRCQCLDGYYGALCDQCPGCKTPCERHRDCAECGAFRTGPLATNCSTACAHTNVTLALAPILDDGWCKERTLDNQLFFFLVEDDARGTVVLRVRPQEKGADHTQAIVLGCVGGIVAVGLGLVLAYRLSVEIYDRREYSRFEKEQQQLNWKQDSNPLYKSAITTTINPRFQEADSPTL

SMILES | IC50 (rh integrin α4β7) | IC50 (α4β1) | half-life at 22 μM [1] | IC50 (α4β7) | Stabilty SIF t1/2 ([1]; Table 3-B)
CC(=O)N[C@@H]1C(=O)N(C)[C@@H](CCCNC(=N)N)C(=O)N[C@@H](CO)C(=O)N[C@@H](CC(=O)O)C(=O)N[C@@H]([C@@H](C)O)C(=O)N[C@@H](CC(C)C)C(=O)N[C@H](C(=O)N[C@@H](Cc2cccc3ccccc23)C(=O)N[C@@H](CCC(=O)O)C(=O)N[C@H](CCCCNC(=O)COCC(=O)NCCCC[C@@H](NC(=O)[C@H](CCC(=O)O)NC(=O)[C@H](Cc2cccc3ccccc23)NC(=O)[C@H]2NC(=O)[C@H](CC(C)C)NC(=O)[C@H]([C@@H](C)O)NC(=O)[C@H](CC(=O)O)NC(=O)[C@H](CO)NC(=O)[C@H](CCCNC(=N)N)N(C)C(=O)[C@@H](NC(C)=O)C(C)(C)SSC2(C)C)C(N)=O)C(N)=O)C(C)(C)SSC1(C)C [compound 24] (I: Ac-[Pen][NMeR]SDTL[Pen][1Nal]E[dK]-NH2 / II: Ac-[Pen][NMeR]SDTL[Pen][1Nal]E[dK]-NH2; disulfide I:1-I:7, II:1-II:7; linker I:10-II:10 via Diglycolyl) | < 10 nM | 100 to 500 nM | 56 min | < 10 nM | –
CC(=O)N[C@@H]1C(=O)N(C)[C@@H](CCCNC(=N)N)C(=O)N[C@@H](CO)C(=O)N[C@@H](CC(=O)O)C(=O)N[C@@H]([C@@H](C)O)C(=O)N[C@@H](CC(C)C)C(=O)N[C@H](C(=O)N[C@@H](Cc2cccc3ccccc23)C(=O)N[C@H](CCC(=O)O)C(=O)N[C@H](CCCCNC(=O)COCC(=O)NCCCC[C@@H](NC(=O)[C@@H](CCC(=O)O)NC(=O)[C@H](Cc2cccc3ccccc23)NC(=O)[C@H]2NC(=O)[C@H](CC(C)C)NC(=O)[C@H]([C@@H](C)O)NC(=O)[C@H](CC(=O)O)NC(=O)[C@H](CO)NC(=O)[C@H](CCCNC(=N)N)N(C)C(=O)[C@@H](NC(C)=O)C(C)(C)SSC2(C)C)C(N)=O)C(N)=O)C(C)(C)SSC1(C)C [compound 32] (I: Ac-[Pen][NMeR]SDTL[Pen][1Nal][dE][dK]-NH2 / II: Ac-[Pen][NMeR]SDTL[Pen][1Nal][dE][dK]-NH2; disulfide I:1-I:7, II:1-II:7; linker I:10-II:10 via Diglycolyl) | < 10 nM | 100 to 500 nM | > 180 min | 10 to 25 nM | –
CC(=O)N[C@@H]1C(=O)N(C)[C@@H](CCCNC(=N)N)C(=O)N[C@@H](CO)C(=O)N[C@@H](CC(=O)O)C(=O)N[C@@H]([C@@H](C)O)C(=O)N[C@@H](CC(C)C)C(=O)N[C@H](C(=O)N[C@@H](Cc2cccc3ccccc23)C(=O)N[C@H](CCC(=O)O)C(=O)N(C)[C@H](CCCCNC(=O)COCC(=O)NCCCC[C@H](C(N)=O)N(C)C(=O)[C@@H](CCC(=O)O)NC(=O)[C@H](Cc2cccc3ccccc23)NC(=O)[C@H]2NC(=O)[C@H](CC(C)C)NC(=O)[C@H]([C@@H](C)O)NC(=O)[C@H](CC(=O)O)NC(=O)[C@H](CO)NC(=O)[C@H](CCCNC(=N)N)N(C)C(=O)[C@@H](NC(C)=O)C(C)(C)SSC2(C)C)C(N)=O)C(C)(C)SSC1(C)C [compound 38] (I: Ac-[Pen][NMeR]SDTL[Pen][1Nal][dE][dNMeK]-NH2 / II: Ac-[Pen][NMeR]SDTL[Pen][1Nal][dE][dNMeK]-NH2; disulfide I:1-I:7, II:1-II:7; linker I:10-II:10 via Diglycolyl) | < 10 nM | 100 to 500 nM | > 180 min | < 10 nM | –
CC(=O)N[C@@H]1C(=O)N(C)[C@@H](CCCNC(=N)N)C(=O)N[C@@H](CO)C(=O)N[C@@H](CC(=O)O)C(=O)N[C@@H]([C@@H](C)O)C(=O)N[C@@H](CC(C)C)C(=O)N[C@H](C(=O)N[C@@H](Cc2ccc3ccccc3c2)C(=O)N[C@@H](CCC(=O)O)C(=O)N(C)[C@H](CCCCNC(=O)COCC(=O)NCCCC[C@H](C(N)=O)N(C)C(=O)[C@H](CCC(=O)O)NC(=O)[C@H](Cc2ccc3ccccc3c2)NC(=O)[C@H]2NC(=O)[C@H](CC(C)C)NC(=O)[C@H]([C@@H](C)O)NC(=O)[C@H](CC(=O)O)NC(=O)[C@H](CO)NC(=O)[C@H](CCCNC(=N)N)N(C)C(=O)[C@@H](NC(C)=O)C(C)(C)SSC2(C)C)C(N)=O)C(C)(C)SSC1(C)C [compound 41] (I: Ac-[Pen][NMeR]SDTL[Pen][2Nal]E[dNMeK]-NH2 / II: Ac-[Pen][NMeR]SDTL[Pen][2Nal]E[dNMeK]-NH2; disulfide I:1-I:7, II:1-II:7; linker I:10-II:10 via Diglycolyl) | < 10 nM | 100 to 500 nM | > 180 min | < 10 nM | –
CC(=O)N[C@@H]1C(=O)N(C)[C@@H](CCCNC(=N)N)C(=O)N[C@@H](CO)C(=O)N[C@@H](CC(=O)O)C(=O)N[C@@H]([C@@H](C)O)C(=O)N[C@@H](CC(C)C)C(=O)N[C@H](C(=O)N[C@@H](Cc2ccc(Cl)cc2Cl)C(=O)N[C@@H](CCC(=O)O)C(=O)N[C@H](CCCCNC(=O)COCC(=O)NCCCC[C@@H](NC(=O)[C@H](CCC(=O)O)NC(=O)[C@H](Cc2ccc(Cl)cc2Cl)NC(=O)[C@H]2NC(=O)[C@H](CC(C)C)NC(=O)[C@H]([C@@H](C)O)NC(=O)[C@H](CC(=O)O)NC(=O)[C@H](CO)NC(=O)[C@H](CCCNC(=N)N)N(C)C(=O)[C@@H](NC(C)=O)C(C)(C)SSC2(C)C)C(N)=O)C(N)=O)C(C)(C)SSC1(C)C [compound 42] (I: Ac-[Pen][NMeR]SDTL[Pen][Phe(2,4-Cl2)]E[dK]-NH2 / II: Ac-[Pen][NMeR]SDTL[Pen][Phe(2,4-Cl2)]E[dK]-NH2; disulfide I:1-I:7, II:1-II:7; linker I:10-II:10 via Diglycolyl) | < 10 nM | 100 to 500 nM | 51 min | < 10 nM | 49 min
CC(=O)N[C@@H]1C(=O)N(C)[C@@H](CCCNC(=N)N)C(=O)N[C@@H](CO)C(=O)N[C@@H](CC(=O)O)C(=O)N[C@@H]([C@@H](C)O)C(=O)N[C@@H](CC(C)C)C(=O)N[C@H](C(=O)N[C@@H](Cc2ccc(Cl)c(Cl)c2)C(=O)N[C@@H](CCC(=O)O)C(=O)N[C@H](CCCCNC(=O)COCC(=O)NCCCC[C@@H](NC(=O)[C@H](CCC(=O)O)NC(=O)[C@H](Cc2ccc(Cl)c(Cl)c2)NC(=O)[C@H]2NC(=O)[C@H](CC(C)C)NC(=O)[C@H]([C@@H](C)O)NC(=O)[C@H](CC(=O)O)NC(=O)[C@H](CO)NC(=O)[C@H](CCCNC(=N)N)N(C)C(=O)[C@@H](NC(C)=O)C(C)(C)SSC2(C)C)C(N)=O)C(N)=O)C(C)(C)SSC1(C)C [compound 43] (I: Ac-[Pen][NMeR]SDTL[Pen][Phe(3,4-Cl2)]E[dK]-NH2 / II: Ac-[Pen][NMeR]SDTL[Pen][Phe(3,4-Cl2)]E[dK]-NH2; disulfide I:1-I:7, II:1-II:7; linker I:10-II:10 via Diglycolyl) | < 10 nM | 100 to 500 nM | 21 min | 10 to 25 nM | –
